Results from ChEMBL document CHEMBL1129189 (Bioorg Med Chem Lett, 1996).

Legend:
[1] = molecular target: T1, Retinoic acid receptor beta (Homo sapiens, UniProt P10826); assay: Compound was tested for functional activity in CV-1 cells transfected with an expression vector for retinoic acid receptor beta using transactivation assay; type: cell-based
T1 sequence (P10826 whole entry): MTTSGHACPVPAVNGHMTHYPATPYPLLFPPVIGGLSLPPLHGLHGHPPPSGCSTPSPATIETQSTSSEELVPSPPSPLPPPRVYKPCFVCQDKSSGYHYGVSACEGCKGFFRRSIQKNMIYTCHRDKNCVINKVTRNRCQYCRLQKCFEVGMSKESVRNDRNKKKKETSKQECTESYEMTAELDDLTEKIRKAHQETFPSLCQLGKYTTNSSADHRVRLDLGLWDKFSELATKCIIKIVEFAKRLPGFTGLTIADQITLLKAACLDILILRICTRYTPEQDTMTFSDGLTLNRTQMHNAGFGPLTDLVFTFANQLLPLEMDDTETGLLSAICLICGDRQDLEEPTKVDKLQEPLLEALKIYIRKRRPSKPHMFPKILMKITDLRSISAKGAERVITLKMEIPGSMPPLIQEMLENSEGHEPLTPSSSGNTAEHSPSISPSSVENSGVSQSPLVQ

[2] = molecular target: T2, Retinoic acid receptor RXR-beta (Homo sapiens, UniProt P28702); assay: Compound was tested for functional activity in CV-1 cells transfected with an expression vector for retinoid X receptor beta using transactivation assay; type: cell-based
T2 sequence (P28702 whole entry): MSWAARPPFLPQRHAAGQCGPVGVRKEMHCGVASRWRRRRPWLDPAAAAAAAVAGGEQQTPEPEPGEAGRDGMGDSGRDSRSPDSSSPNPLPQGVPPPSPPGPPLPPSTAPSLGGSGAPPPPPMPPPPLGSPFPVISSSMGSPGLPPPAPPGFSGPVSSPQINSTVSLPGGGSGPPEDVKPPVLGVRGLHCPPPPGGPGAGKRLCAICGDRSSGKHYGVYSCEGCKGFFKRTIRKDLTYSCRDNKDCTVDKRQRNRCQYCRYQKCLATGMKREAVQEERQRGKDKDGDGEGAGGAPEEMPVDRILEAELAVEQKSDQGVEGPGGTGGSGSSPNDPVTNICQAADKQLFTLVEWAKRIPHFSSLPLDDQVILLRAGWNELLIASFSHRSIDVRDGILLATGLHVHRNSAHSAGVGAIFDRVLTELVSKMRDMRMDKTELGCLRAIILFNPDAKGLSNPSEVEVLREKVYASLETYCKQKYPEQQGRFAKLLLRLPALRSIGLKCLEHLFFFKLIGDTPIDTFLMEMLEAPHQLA

[3] = molecular target: T2, Retinoic acid receptor RXR-beta; assay: (§1) Compound was tested for binding affinity against retinoid X receptor using 5 nM of [3H]9-cis-RA as a radioligand in baculovirus expressed receptor
[4] = molecular target: T3, Retinoic acid receptor RXR-gamma (Homo sapiens, UniProt P48443); assay: as §1
T3 sequence (P48443 whole entry): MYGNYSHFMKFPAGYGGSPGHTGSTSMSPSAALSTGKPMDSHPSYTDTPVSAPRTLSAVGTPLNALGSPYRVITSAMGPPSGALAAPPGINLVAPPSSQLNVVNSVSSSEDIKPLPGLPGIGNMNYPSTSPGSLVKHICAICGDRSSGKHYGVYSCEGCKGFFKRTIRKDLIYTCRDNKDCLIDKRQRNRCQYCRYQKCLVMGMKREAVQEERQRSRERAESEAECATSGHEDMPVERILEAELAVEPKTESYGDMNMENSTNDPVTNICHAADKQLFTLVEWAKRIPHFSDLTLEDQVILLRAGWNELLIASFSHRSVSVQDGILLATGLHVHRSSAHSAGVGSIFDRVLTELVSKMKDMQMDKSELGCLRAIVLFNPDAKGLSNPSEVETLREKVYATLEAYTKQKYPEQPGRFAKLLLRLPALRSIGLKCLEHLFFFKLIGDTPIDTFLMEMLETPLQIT

[5] = molecular target: T4, Retinoic acid receptor RXR-alpha (Homo sapiens, UniProt P19793); assay: Compound was tested for functional activity in CV-1 cells transfected with an expression vector for retinoid X receptor alpha using transactivation assay; type: cell-based
T4 sequence (P19793 whole entry): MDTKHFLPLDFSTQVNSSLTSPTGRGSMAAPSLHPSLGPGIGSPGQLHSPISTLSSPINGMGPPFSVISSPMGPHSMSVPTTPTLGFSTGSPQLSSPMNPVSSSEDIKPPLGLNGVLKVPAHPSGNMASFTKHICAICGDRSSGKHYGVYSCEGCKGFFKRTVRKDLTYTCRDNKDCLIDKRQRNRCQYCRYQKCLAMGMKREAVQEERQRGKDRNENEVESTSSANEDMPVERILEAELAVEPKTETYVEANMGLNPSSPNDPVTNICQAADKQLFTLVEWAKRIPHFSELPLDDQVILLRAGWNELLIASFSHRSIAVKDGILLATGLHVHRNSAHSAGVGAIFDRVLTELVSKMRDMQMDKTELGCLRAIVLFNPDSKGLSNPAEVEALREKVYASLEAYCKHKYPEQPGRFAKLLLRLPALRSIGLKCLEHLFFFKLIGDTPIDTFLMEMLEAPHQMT

[6] = molecular target: T4, Retinoic acid receptor RXR-alpha; assay: Compound was tested for binding affinity against retinoid X receptor using 5 nM of [3H]-9-cis-RA as a radioligand in baculovirus expressed receptor
[7] = molecular target: T5, Retinoic acid receptor alpha (Homo sapiens, UniProt P10276); assay: (§2) Compound was tested for binding affinity against retinoic acid receptor using 5 nM of [3H]RA as a radioligand in baculovirus expressed receptor
T5 sequence (P10276 whole entry): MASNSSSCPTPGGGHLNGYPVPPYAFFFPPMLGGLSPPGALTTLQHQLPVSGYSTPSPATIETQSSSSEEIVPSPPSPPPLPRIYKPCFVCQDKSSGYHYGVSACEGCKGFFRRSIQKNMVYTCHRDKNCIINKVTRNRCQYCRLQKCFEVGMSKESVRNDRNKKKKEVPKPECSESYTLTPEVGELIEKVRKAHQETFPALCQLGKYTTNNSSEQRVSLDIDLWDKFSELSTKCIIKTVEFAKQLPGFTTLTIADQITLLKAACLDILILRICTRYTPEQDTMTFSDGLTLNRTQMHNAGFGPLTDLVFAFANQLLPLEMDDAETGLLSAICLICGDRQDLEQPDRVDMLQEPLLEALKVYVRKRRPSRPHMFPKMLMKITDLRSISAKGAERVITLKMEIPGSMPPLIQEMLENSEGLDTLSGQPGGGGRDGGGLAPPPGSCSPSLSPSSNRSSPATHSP

[8] = molecular target: T1, Retinoic acid receptor beta; assay: as §2
[9] = molecular target: T6, Retinoic acid receptor gamma (Homo sapiens, UniProt P13631); assay: as §2
T6 sequence (P13631 whole entry): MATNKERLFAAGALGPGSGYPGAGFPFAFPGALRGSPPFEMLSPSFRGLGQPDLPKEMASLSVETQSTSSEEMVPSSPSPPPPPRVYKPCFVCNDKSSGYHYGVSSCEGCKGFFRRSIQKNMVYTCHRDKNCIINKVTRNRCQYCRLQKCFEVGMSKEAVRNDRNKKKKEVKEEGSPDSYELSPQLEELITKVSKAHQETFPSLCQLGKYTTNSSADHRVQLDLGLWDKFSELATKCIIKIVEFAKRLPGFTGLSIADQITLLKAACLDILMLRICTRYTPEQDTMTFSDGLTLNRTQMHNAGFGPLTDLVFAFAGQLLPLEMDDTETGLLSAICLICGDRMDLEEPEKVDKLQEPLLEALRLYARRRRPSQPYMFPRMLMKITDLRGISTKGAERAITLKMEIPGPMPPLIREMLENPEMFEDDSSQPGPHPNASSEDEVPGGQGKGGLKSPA

[10] = molecular target: T5, Retinoic acid receptor alpha; assay: Compound was tested for functional activity in CV-1 cells transfected with an expression vector for retinoic acid receptor alpha using transactivation assay; type: cell-based
[11] = molecular target: T3, Retinoic acid receptor RXR-gamma; assay: Compound was tested for functional activity in CV-1 cells transfected with an expression vector for retinoid X receptor gamma using transactivation assay; type: cell-based
[12] = molecular target: T6, Retinoic acid receptor gamma; assay: Compound was tested for functional activity in CV-1 cells transfected with an expression vector for retinoic acid receptor gamma using transactivation assay; type: cell-based

Structure (SMILES) | EC50 [1] [nM] | EC50 [2] [nM] | Kd [3] [nM] | Kd [4] [nM] | EC50 [5] [nM] | Kd [6] [nM] | Kd [7] [nM] | Kd [8] [nM] | Kd [9] [nM] | EC50 [10] [nM] | EC50 [11] [nM] | EC50 [12] [nM]
CC(=CC(=O)O)/C=C/C1CC1(C)c1cc2c(cc1C)C(C)(C)CCC2(C)C (centres undefined) | > 1000 | > 1000 | > 1000 | > 1000 | > 1000 | > 1000 | > 1000 | > 1000 | > 1000 | > 1000 | > 1000 | > 1000
CC(/C=C/C1CC1(C)c1cc2c(cc1C)C(C)(C)CCC2(C)C)=C\C(=O)O (centres undefined) | > 1000 | 100 | 56 | 42 | 130 | 71 | > 1000 | > 1000 | > 1000 | > 1000 | 71 | > 1000
